Experiment [1] has as its system CD-1 mice. Briefly: Thermal radiation tail-flick experiment I in mice (analgesic effect). Type of experiment: in vivo. Particulars: for Tail-flick threshold: injected into abdominal cavity, 30 min after dosing, cut-off 22 sec. The method, then:
Thermal Radiation Tail-flick Experiment I in Mice (Tail-flick assay): to Evaluate the Analgesic Effect In Vivo of the Compounds of the Present Invention.
Select CD-1 mice (with the original weight being 30-40 g) and divide them into 6 groups (solvent group, morphine group, 1-THP group and DHCB groups with different doses: 5, 10, and 40 mg/kg), each including 9-11 mice. Place mice tails on the thermal radiation tail-flick apparatus and direct the light beam at ⅓ of the mice tails. First determine the basic pain thresholds of each group of mice, then inject the test samples into the abdominal cavities of the mice respectively, and after 30 min, re-determine the mice's pain thresholds. The irradiation time was no more than 22 sec. See Table 2 for the determination results.

Another experiment has as its target T1, dopamine D2 receptor (Homo sapiens, UniProt P14416).
T1 construct: expressed in transfected cells; host or cells: HEK293T (transiently transfected)
In words: FLIPR Ca2+ assay, antagonist of dopamine D2 receptor in transiently transfected HEK293T cells. Type of experiment: cell-based. The conditions noted are these: for antagonist effect on dopamine D2 receptor: intracellular Ca2+, vs DMSO blank. How it is done: (§1) Experimental scheme: the cells used to express μ opioid receptors in this research are stably transfected human embryonic kidney 293T cells (HEK293T); the dopamine receptor applied is transiently transfected HEK293T. In this scheme, part of the berberine derivatives obtained in the present invention were added to the cells that have expressed with corresponding receptors, and FLIPR (Fluorometric Imaging Plate Reader; Molecular Devices Corp) was applied to screen and identify their functions. Specifically: inoculate cells to a 96-well cell culture plate coated with poly-D-lysme based on 80,000 per well, after 24 hours, remove the medium, add 100 μl fluorescent dye solution (2 μM Fluo-4 AM dissolves first in pluronic acid and then in the buffer composed of haploid Hank's buffer and 20 mM HEPES, with pH 7.4) to each well and keep it at 37° C. for 1 hour, then wash the cells with the buffer three times. Dissolve the compounds to be tested with DMSO and put them in a 96-well plate, apply FLIPR to automatically add samples to the cell culture plate and incubate for 3 min (for the tests of agonist of μ-opioid receptor) or 10 min (for the tests of antagonist of dopamine receptor). Then perform fluorescence detection under the wavelength of 520 nm and 488 nm, thus monitoring the concentration of Ca^2+ in the cells.
(§2) The experimental scheme is the same as that in example 1, except that when adding, dilute the compounds to be tested with buffer to different concentrations, so as to detect responses under different doses. This method has been used to test DHCB effect on μ-opioid receptors and 5 dopamine receptors, with the results as shown in FIG. 3 and Table 1. […] In addition, μ-opioid receptor's weak synergism can further enhance the analgesic effect of DHCB.

The target of the next experiment is T2, Dopamine D4 (Homo sapiens, UniProt P21917).
T2 construct: expressed in transfected cells; host or cells: HEK293T (transiently transfected)
T2 sequence (P21917 1-419): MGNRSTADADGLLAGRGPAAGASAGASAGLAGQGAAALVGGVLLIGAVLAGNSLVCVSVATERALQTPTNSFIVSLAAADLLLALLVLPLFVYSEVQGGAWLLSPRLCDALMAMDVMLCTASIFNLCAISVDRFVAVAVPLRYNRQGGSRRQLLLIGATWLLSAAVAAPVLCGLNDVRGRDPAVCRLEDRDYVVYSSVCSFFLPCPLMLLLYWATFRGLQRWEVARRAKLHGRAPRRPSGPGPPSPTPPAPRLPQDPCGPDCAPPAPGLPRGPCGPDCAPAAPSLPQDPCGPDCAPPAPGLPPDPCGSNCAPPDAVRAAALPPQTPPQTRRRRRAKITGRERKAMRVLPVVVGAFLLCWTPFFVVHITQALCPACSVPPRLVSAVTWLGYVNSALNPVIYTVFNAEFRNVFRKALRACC
In words: FLIPR Ca2+ assay, antagonist of dopamine D4 receptor in transiently transfected HEK293T cells. Type of experiment: cell-based. The method, then:
as §1, with “cells. […]” for “cells.”

In a further experiment the target is T3, Dopamine D1 (Homo sapiens, UniProt P21728).
T3 construct: expressed in transfected cells; host or cells: HEK293T (transiently transfected)
T3 sequence (P21728 whole entry): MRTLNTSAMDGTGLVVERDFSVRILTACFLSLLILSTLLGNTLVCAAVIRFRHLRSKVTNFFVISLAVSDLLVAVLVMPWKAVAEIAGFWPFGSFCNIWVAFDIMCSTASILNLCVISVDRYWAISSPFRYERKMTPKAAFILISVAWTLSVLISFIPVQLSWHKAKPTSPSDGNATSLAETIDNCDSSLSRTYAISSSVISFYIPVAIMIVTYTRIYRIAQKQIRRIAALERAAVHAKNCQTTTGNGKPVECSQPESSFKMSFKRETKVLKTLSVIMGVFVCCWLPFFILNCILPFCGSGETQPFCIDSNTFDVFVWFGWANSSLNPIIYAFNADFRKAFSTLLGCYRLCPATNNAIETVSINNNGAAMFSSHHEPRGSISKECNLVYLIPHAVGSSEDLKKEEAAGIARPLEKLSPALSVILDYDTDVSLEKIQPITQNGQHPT
Briefly: FLIPR Ca2+ assay, antagonist of dopamine D1 receptor in transiently transfected HEK293T cells. Type of experiment: cell-based. How it is done:
as §1, with “cells. […]” for “cells.”

Experiment [2] concerns CD-1 mice. In words: Thermal radiation tail-flick experiment II in mice (duration time of analgesic effect). Type of experiment: in vivo. Particulars: pain thresholds within 6 hours; DHCB 20 and 40 mg/kg. How it is done: Thermal Radiation Tail-flick Experiment II in Mice (Tail-flick Assay): to Evaluate the Duration Time of the Analgesic Effect In Vivo of the Compounds of the Present Invention.
Select CD-1 mice (with the original weight being 30-40 g) and divide them into […] (solvent group, morphine group, and DHCB groups with different doses: 10, 20 and 40 mg/kg), each including 9-11 mice. Place mice tails on the thermal radiation tail-flick apparatus and direct the light beam at ⅓ of the mice tails. First determine the basic pain thresholds of each group of mice, then inject the test samples into the abdominal cavities of the mice respectively, and determine the mice's pain thresholds within 6 hours according to time points. The irradiation time was no more than 22 sec.

For a further experiment, the target named is T4, μ opioid receptor (Homo sapiens, UniProt P35372).
T4 construct: expressed in transfected cells; host or cells: HEK293T (stably transfected)
T4 sequence (P35372 whole entry, species assumed): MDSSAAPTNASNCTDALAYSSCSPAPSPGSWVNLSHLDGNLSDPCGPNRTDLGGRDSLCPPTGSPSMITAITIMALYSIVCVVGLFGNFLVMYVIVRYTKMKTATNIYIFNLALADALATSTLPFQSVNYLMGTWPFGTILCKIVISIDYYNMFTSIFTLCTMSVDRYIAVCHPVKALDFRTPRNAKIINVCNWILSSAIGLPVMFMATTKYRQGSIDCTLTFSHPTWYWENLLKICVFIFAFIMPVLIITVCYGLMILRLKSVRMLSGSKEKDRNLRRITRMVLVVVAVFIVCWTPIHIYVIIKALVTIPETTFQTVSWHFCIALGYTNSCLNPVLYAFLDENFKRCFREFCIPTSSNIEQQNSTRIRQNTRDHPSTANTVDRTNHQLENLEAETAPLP
In words: FLIPR Ca2+ assay, agonist of μ opioid receptor in stably transfected HEK293T cells. Type of experiment: cell-based. The conditions noted are these: for agonist effect on μ opioid receptor: intracellular Ca2+, vs DMSO blank. How it is done: as §1, §2

Experiment [3] deals with CD-1 mice. In words: Formalin pain experiment in mice. The conditions noted are these: 5% formalin 15 min after drug. Type of experiment: in vivo. The method, then: Activity Example 5: to Evaluate the Analgesic Effect In Vivo of the Compounds of the Present Invention Through Formalin Pain Experiment in Mice.
Select CD-1 mice (with the original weight being 30-40 g) and divide them into 4 groups (solvent group, morphine group, and DHCB groups with different doses: 5 and 10 mg/kg), each including 9-11 mice. Place hind paws of the mice that are marked with formalin injection into the cages for 15-30 min. Inject drugs of corresponding doses into each mouse, and after 15 min, infuse 5% formalin solution subcutaneously into the underside of marked paw feet. The mice soon began to lick or bite their injected feet. Keep observation for 50 min, and record mice feet-licking time within phase I (0-5 min) and phase II (10-50 min).

In the next experiment the target is T5, Dopamine D5 (Homo sapiens, UniProt P21918).
T5 construct: expressed in transfected cells; host or cells: HEK293T (transiently transfected)
T5 sequence (P21918 whole entry): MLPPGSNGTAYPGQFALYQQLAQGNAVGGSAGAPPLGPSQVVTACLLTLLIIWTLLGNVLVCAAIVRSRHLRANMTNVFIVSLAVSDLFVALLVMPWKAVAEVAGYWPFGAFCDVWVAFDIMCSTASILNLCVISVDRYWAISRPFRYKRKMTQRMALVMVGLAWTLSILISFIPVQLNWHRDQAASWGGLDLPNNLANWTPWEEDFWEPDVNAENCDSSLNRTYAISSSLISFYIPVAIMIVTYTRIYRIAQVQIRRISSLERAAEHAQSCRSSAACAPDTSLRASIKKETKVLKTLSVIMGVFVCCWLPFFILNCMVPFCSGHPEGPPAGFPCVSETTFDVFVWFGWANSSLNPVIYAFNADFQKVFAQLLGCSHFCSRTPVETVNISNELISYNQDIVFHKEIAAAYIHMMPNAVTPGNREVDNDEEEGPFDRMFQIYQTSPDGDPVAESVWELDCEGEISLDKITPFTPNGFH
In words: FLIPR Ca2+ assay, antagonist of dopamine D5 receptor in transiently transfected HEK293T cells. Type of experiment: cell-based. The method, then:
as §1, with “cells. […]” for “cells.”

A further experiment concerns the target T6, Dopamine D3 (Homo sapiens, UniProt P35462).
T6 construct: expressed in transfected cells; host or cells: HEK293T (transiently transfected)
Briefly: FLIPR Ca2+ assay, antagonist of dopamine D3 receptor in transiently transfected HEK293T cells. Type of experiment: cell-based. The method, then: as §1, with “cells. […]” for “cells.”

In a further experiment the test system is mice. In words: Drug resistance experiment (mice tail-flick under thermal radiation, 7 days). The conditions noted are these: successive 7 days, DHCB 10 mg/kg into abdominal cavity, thresholds every other day. Type of experiment: in vivo. How it is done:
Drug resistance is a defect existing in many commonly used analgesics, which constitutes great limitations on their use. This experiment studies the drug resistance of DHCB through mice tail-flick under thermal radiation. During the experiment, DHCB (10 mg/kg) had been injected into the abdominal cavity of the mice for successive 7 days and the mice's pain thresholds had been detected every other day.

The structures appear in SMILES notation.

T1 sequence (P14416 whole entry, species assumed): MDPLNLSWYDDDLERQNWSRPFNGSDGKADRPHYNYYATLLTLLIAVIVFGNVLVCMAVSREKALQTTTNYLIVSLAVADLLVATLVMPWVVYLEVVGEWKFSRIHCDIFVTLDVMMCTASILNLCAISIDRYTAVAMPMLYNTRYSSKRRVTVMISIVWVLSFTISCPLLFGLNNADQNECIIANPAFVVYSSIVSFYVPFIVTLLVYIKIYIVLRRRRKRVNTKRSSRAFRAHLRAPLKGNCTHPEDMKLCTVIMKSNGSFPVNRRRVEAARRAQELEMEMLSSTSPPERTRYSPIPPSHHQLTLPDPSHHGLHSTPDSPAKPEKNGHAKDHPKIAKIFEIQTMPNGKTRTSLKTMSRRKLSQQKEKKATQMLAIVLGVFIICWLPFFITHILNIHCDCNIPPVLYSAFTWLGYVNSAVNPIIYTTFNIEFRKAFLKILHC
T6 sequence (P35462 whole entry): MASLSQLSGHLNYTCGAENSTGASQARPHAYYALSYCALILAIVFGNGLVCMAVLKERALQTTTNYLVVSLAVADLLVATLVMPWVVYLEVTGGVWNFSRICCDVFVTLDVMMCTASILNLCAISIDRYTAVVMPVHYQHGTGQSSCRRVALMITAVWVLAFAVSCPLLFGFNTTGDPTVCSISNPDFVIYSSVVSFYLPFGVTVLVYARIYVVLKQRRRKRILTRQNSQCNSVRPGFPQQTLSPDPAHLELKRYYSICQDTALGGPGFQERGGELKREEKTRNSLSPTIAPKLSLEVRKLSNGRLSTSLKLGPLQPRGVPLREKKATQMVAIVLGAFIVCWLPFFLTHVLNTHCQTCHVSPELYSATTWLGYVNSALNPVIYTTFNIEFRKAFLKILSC

For `COc1cc2c(cc1OC)[C@@H]1Cc3ccc(OC)c(OC)c3CN1CC2` [Compound 1-THP, L-tetrahydropalmatine, reference compound], the Tail-flick threshold in the experiment with CD-1 mice [1] (10 mg/kg) was found to be 10 s.
On to `COc1cc2c(cc1O)-c1c(C)c3ccc(OC)c(OC)c3c[n+]1CC2` [Compound 10], for which, on dopamine D2 receptor (FLIPR, HEK293T), the “antagonist effect on dopamine D2 receptor” value (“antagonist effect” for short) was “good antagonist”.
Regarding `COc1cc2c(cc1O)CC[n+]1cc3c(OC)c(OC)ccc3c(C)c1-2` [Compound 12, dehydrocorybulbine], on Dopamine D4 (dose-effect), the “effect on dopamine D4 receptor” value was “antagonist”. For the same compound, the IC50 at Dopamine D4 (dose-effect curve, HEK293T) was found to be 8400 nM; on Dopamine D1 (dose-effect curve, HEK293T), 2160 nM; at Dopamine D5 (dose-effect curve, HEK293T), 730 nM; at dopamine D2 receptor (dose-effect curve, FLIPR, HEK293T), 520 nM; at Dopamine D3 (dose-effect curve, HEK293T), 2400 nM. Further, on Dopamine D1 (dose-effect), the “effect on dopamine D1 receptor” value is on record as “antagonist”. The “duration of analgesic effect in tail-flick” value in the experiment on CD-1 mice [2] is given as “does not exhibit conspicuous attenuation until four hours have passed”. Also, the Tail-flick threshold in the experiment on CD-1 mice [1] (5 mg/kg) is 9 s; in the experiment with CD-1 mice [1] (10 mg/kg), 12 s; in the experiment with CD-1 mice [1] (40 mg/kg), 17 s. In addition, the “analgesic effect in tail-flick” value in the experiment with CD-1 mice [1] (doses of 5, 10, and 40 mg/kg) was “significant dose-dependent analgesic effect”. For the same compound, the “analgesic effect on heat stimulation compared with morphine” value with CD-1 mice [1] (high dose 40 mg/kg) was “close to that of small-dose morphine”. Moreover, the “analgesic effect in tail-flick compared with controls” value with CD-1 mice [1] (low dose 10 mg/kg) is “superior to that of THP”. For the same compound, on μ opioid receptor (dose-effect curve), the EC50 came to 100000 nM. Further, the “agonist effect on μ opioid receptor” value at μ opioid receptor is reported as “a certain agonist”; on μ opioid receptor (listed as DHCB) it was “weak agonist”. Moreover, the “analgesic effect within phase I (0-5 min), feet-licking time” value with CD-1 mice [3] (5 mg/kg and 10 mg/kg) is given as “substantial analgesic effect”. Further, in the experiment with CD-1 mice [3] (10 mg/kg), the “analgesic effect within phase II (10-50 min), feet-licking time” value was “significant analgesic effect”. On Dopamine D5 (dose-effect), the “effect on dopamine D5 receptor” value was “antagonist”. Besides, at dopamine D2 receptor (FLIPR screen, THP positive control), the “antagonist activity on D2 compared with THP” value is given as “equivalent to that of THP”. Further, the “antagonist effect” value is given as “good antagonist” on dopamine D2 receptor (FLIPR, HEK293T) and “antagonist” at dopamine D2 receptor (FLIPR, HEK293T, listed as DHCB). The “effect on dopamine D3 receptor” value at Dopamine D3 (dose-effect) is listed as “antagonist”. Besides, the “analgesic effect on repeated dosing (drug resistance)” value with mice is listed as “unchanged analgesic effect”.
In the case of `COc1cc2c(cc1O)-c1c(C)c3ccc(OC)c(O)c3c[n+]1CC2` [Compound 14], on dopamine D2 receptor (FLIPR, HEK293T), the “antagonist effect” value is given as “good antagonist”.
For the compound `COc1cc2c(cc1O)CC[n+]1cc3c(O)c(OC)ccc3c(C)c1-2` [Compound 16], the “agonist effect on μ opioid receptor” value at μ opioid receptor was “a certain agonist”. At dopamine D2 receptor (FLIPR, HEK293T), the “antagonist effect” value is “good antagonist”.
`CN1CC[C@]23c4c5ccc(O)c4O[C@H]2[C@@H](O)C=C[C@H]3[C@H]1C5` [morphine, reference compound]: in the experiment on CD-1 mice [2], the “duration of analgesic effect in tail-flick” value was “weakens quickly two hours later”. Besides, the Tail-flick threshold in the experiment with CD-1 mice [1] (10 mg/kg) was found to be 20 s. Moreover, the “analgesic effect on repeated dosing (drug resistance)” value in the experiment on mice is recorded as “began to reduce obviously from the third day”.

The record behind these values is patent US9610281B2 (priority 2012, dated 2017).
